Data taken from ChEMBL document CHEMBL5506046, “Discovery of LLC355 as an Autophagy-Tethering Compound for the Degradation of Discoidin Domain Receptor 1” (J Med Chem, 2024).
The source made the active and inactive calls. The calls are words filed in the database; no cut-off is given here.

How the values were obtained:
[1] = molecular target: LC3/Epithelial discoidin domain-containing receptor 1 (Homo sapiens, UniProt Q08345+Q9BXW4+Q9GZQ8+Q9H492); experiment: Autophagosome tethering activity at DDR1 in human NCI-H23 cells assessed as protein degradation at 0.3 uM measured after 24 hrs by immunoblotting analysis relative to control; type: cell-based
NCI-H23 [2] = experiment: Inhibition of cell invasion in human NCI-H23 cells at 1 uM incubated for 24 hrs by transwell assay; type: functional, cell-based
NCI-H23 [3] = experiment: Inhibition of tumorigenicity in human NCI-H23 cells at 1 uM incubated for 10 days by colony formation assay; type: functional, cell-based; conditions: time 10.0 day
NCI-H23 [4] = experiment: Inhibition of cell migration in human NCI-H23 cells at 1 uM incubated for 24 hrs by transwell assay; type: functional, cell-based

SMILES | Activity [1] | further results
CCc1ccc(C(=O)Nc2cc(CN3CCN(CCCCCCCC(=O)NCCCN(C(=O)c4ccc(C)cc4)[C@@H](c4nc5cc(Cl)ccc5c(=O)n4Cc4ccccc4)C(C)C)CC3)cc(C(F)(F)F)c2)cc1C#Cc1cnc2ccnn2c1 | 6% | –
CCc1ccc(C(=O)Nc2cc(CN3CCN(C(=O)COCCNC(=O)COc4c(Br)cc(/C=C5\C(=O)Nc6ccc(I)cc65)cc4Br)CC3)cc(C(F)(F)F)c2)cc1C#Cc1cnc2ccnn2c1 | 0% | –
CCc1ccc(C(=O)Nc2cc(CN3CCN(CCCCCC(=O)NCCCN(C(=O)c4ccc(C)cc4)[C@@H](c4nc5cc(Cl)ccc5c(=O)n4Cc4ccccc4)C(C)C)CC3)cc(C(F)(F)F)c2)cc1C#Cc1cnc2ccnn2c1 | 13% | –
CC#Cc1cc(C(=O)Nc2cc(CN3CCN(CCOCC(=O)NCCCN(C(=O)c4ccc(C)cc4)[C@@H](c4nc5cc(Cl)ccc5c(=O)n4Cc4ccccc4)C(C)C)CC3)cc(C(F)(F)F)c2)ccc1CC | – | inhibition (NCI-H23 [2]): inactive; inhibition (NCI-H23 [3]): inactive; inhibition (NCI-H23 [4]): inactive
CCc1ccc(C(=O)Nc2cc(CN3CCN(C(=O)CCCCCNC(=O)COc4c(Br)cc(/C=C5\C(=O)Nc6ccc(I)cc65)cc4Br)CC3)cc(C(F)(F)F)c2)cc1C#Cc1cnc2ccnn2c1 | 12% | –
CCc1ccc(C(=O)Nc2cc(CN3CCN(CCCC(=O)NCCCN(C(=O)c4ccc(C)cc4)[C@@H](c4nc5cc(Cl)ccc5c(=O)n4Cc4ccccc4)C(C)C)CC3)cc(C(F)(F)F)c2)cc1C#Cc1cnc2ccnn2c1 | 6% | –

The next lines start with results.

Activity [1] | SMILES | further results
0% | CCc1ccc(C(=O)Nc2cc(CN3CCN(C(=O)COCCOCCOCCNC(=O)COc4c(Br)cc(/C=C5\C(=O)Nc6ccc(I)cc65)cc4Br)CC3)cc(C(F)(F)F)c2)cc1C#Cc1cnc2ccnn2c1 | –
9% | CCc1ccc(C(=O)Nc2cc(CN3CCN(C(=O)CCCCCCCNC(=O)COc4c(Br)cc(/C=C5\C(=O)Nc6ccc(I)cc65)cc4Br)CC3)cc(C(F)(F)F)c2)cc1C#Cc1cnc2ccnn2c1 | –
16% | CCc1ccc(C(=O)Nc2cc(CN3CCN(C(=O)CNC(=O)COc4c(Br)cc(/C=C5\C(=O)Nc6ccc(I)cc65)cc4Br)CC3)cc(C(F)(F)F)c2)cc1C#Cc1cnc2ccnn2c1 | –
